These results are taken from patent publication US20090298872A1, “COMPOUNDS AND COMPOSITIONS AS MODULATORS OF STEROIDAL RECEPTORS AND CALCIUM CHANNEL ACTIVITIES” (IRM LLC, priority 2004, published 2009).

Holding throughout (assay type): cell-based
One assay concerns the target T1, MR (Homo sapiens, UniProt P08235).
T1 construct: expressed in transfected cells; host or cells: 293T cells (ATCC)
T1 sequence (P08235 672-984): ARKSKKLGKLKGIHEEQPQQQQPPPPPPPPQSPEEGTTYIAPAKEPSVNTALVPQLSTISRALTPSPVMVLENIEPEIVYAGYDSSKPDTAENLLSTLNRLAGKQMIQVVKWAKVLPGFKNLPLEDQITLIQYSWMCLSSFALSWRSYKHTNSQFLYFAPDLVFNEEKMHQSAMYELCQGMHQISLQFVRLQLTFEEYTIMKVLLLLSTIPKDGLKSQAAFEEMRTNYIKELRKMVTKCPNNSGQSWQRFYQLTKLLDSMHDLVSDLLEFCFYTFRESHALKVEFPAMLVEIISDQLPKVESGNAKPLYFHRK
Kind of assay: Functional assay of mineralocorticoid receptor antagonism (mammalian two hybrid luciferase reporter, 293T cells). The following applies: antagonism of aldosterone (0.4 nM)-induced MR activity. As to the method:
The MR antagonist activity of the compounds is determined in a mammalian two hybrid reporter system. The N-terminus of MR (MR-NT, sequence coding amino acid 1-597) is fused to the activation domain of the VP16 gene. The ligand binding domain of MR (MR-LBD, sequence encoding amino acid 672-984) is fused to the DNA binding domain of the yeast Gal4 gene. The MR gene is cloned from a human kidney cDNA library with PCR.
The assay is performed in 384 well plates. Briefly, 293T cells (ATCC) are transfected with expression vectors for Gal4-MR-LBD and VP16-MR NT, and a luciferase reporter vector containing Gal4 binding sequence (pG5-Luc). Cells are plated in 384 well plates immediately after transfection (approximately 3×10^4 cells/well in 50 μl medium). The medium is supplemented with 3% charcoal-dextran treated fetal bovine serum (Hyclone). Twenty four hours after transfection, compounds prepared in DMSO are transferred to the cells. The cells are then stimulated with 0.4 nM final concentration of aldosterone (Acros) and incubated at 37° C. for another 24 hours before the luciferase activity is assayed with 20 μl of Bright-Glo (Promega) using a luminometer (CLIPR). The expression of luciferase is used as an indicator of aldosterone-induced MR trans-activation. Each compound is tested in duplicate with 12-concentration titration. IC50 values (defined as the concentration of test compound required to antagonize 50% of aldosterone-induced MR activity) are determined from the dose-response curve.

Another assay addresses T2, AR (Homo sapiens, UniProt P10275, Q868H).
T2 construct: endogenous in cells; host or cells: MDA-kb2 cells (ATCC)
T2 sequence (P10275 1-920 Q868H): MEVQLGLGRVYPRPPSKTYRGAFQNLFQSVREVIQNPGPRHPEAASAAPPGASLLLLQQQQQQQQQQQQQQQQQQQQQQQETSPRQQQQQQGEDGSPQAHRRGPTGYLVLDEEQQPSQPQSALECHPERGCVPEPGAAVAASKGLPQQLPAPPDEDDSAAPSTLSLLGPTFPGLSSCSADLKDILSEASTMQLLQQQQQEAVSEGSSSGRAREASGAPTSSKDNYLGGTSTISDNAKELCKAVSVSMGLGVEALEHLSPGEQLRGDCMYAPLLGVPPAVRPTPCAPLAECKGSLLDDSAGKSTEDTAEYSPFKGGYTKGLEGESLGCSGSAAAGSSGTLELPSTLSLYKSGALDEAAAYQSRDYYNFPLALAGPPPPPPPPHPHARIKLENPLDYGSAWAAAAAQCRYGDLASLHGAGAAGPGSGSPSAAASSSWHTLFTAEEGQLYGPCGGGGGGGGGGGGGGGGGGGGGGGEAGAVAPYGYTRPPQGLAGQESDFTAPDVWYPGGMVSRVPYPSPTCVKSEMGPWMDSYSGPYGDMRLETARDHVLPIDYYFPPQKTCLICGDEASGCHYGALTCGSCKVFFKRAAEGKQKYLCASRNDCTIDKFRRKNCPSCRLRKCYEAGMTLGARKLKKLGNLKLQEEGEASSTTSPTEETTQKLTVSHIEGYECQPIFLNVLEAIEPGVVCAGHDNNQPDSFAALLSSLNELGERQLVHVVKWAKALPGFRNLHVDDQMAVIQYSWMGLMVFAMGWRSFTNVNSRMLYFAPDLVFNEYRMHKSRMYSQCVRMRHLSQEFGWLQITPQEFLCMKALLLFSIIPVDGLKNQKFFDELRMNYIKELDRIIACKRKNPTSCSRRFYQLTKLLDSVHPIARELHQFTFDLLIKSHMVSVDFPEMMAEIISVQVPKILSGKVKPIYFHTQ
Kind of assay: Functional assay of androgen receptor antagonism (MMTV luciferase reporter, MDA-kb2 cells). Particulars: antagonism of dihydrotestosterone (0.3 nM)-induced AR activity. As to the method:
The AR antagonist activity of the compounds is determined with the MDA-Kb2 cell line (ATCC), which stably expresses the MMTV luciferase reporter. The MMTV promoter is a mouse mammary tumor virus promoter that contains androgen receptor response elements. […] Upon stimulation with AR ligands, such as dihydrotestosterone, the MMTV luciferase reporter can be activated.
The assay is performed in 384 well plates. Briefly, MDA-kb2 cells are plated in 384 well plates at a density of approximately 2.4×10^4 cells/well in 50 μl medium. The medium is supplemented with 5% charcoal-dextran treated fetal bovine serum (Hyclone). Twenty four hours later, compounds prepared in DMSO are transferred to the cells. The cells are then stimulated with 0.3 nM final concentration of dihydrotestosterone (Sigma) and incubated at 37° C. for another 24 hours before the luciferase activity is assayed with 20 μl of Bright-Glo (Promega) using a luminometer (CLIPR). The expression of luciferase is used as an indicator of dihydrotestosterone-induced AR trans-activation. Each compound is tested in duplicate with a 12-concentration titration. IC50 values (defined as the concentration of test compound required to antagonize 50% of dihydrotestosterone-induced AR activity) are determined from the dose-response curve.
On the technique in general: Reporter assays use an easily measured gene product as a stand-in for the process of interest.

The target of another assay is T3, GR (Homo sapiens, UniProt P04150).
T3 construct: expressed in transfected cells; host or cells: COS-7 cells (ATCC)
T3 sequence (P04150 541-778 isoform P04150-3): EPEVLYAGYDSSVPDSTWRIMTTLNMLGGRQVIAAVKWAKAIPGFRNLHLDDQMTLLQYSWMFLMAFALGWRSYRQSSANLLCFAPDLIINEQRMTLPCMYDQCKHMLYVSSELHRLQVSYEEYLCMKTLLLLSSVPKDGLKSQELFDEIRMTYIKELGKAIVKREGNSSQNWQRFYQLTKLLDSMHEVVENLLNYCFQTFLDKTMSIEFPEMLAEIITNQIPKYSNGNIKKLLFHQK
Briefly: Functional assay of glucocorticoid receptor antagonism (Gal4-GR-LBD luciferase reporter, COS-7 cells). The following applies: antagonism of dexamethasone (10 nM)-induced GR activity. As to the method:
The GR antagonist activity of the compounds is determined in a mammalian two hybrid reporter system. The ligand binding domain of GR (GR-LBD, sequence encoding amino acid 541-778) is fused to the DNA binding domain of the yeast Gal4 gene. The GR gene is cloned from a human lung cDNA library with PCR.
The assay is performed in 384 well plates: COS-7 cells (ATCC) are transfected with expression vectors for Gal-4-GR-LBD and a luciferase reporter vector containing Gal4 binding sequence (pG5-Luc). Cells are plated in 384 well plates immediately after transfection (approximately 8000 cells/well in 50 μl medium). The medium is supplemented with 3% charcoal-dextran treated fetal bovine serum (Hyclone). Twenty four hours after transfection, compounds prepared in DMSO are transferred to the cells. The cells are then stimulated with 10 nM final concentration of dexamethasone (Sigma) and incubated at 37° C. for another 24 hours before the luciferase activity is assayed with 20 μl of Bright-Glo (Promega) using a luminometer (CLIPR). The expression of luciferase is used as an indicator of dexamethasone-induced GR trans-activation. Each compound is tested in duplicate with a 12-concentration titration. IC50 values (defined as the concentration of test compound required to antagonize 50% of dexamethasone-induced GR activity) are determined from the dose-response curve.

Another assay has as its target T4, PR (Homo sapiens, UniProt P06401).
T4 construct: endogenous in cells; host or cells: T-47D cells (ATCC)
T4 sequence (P06401 1-933): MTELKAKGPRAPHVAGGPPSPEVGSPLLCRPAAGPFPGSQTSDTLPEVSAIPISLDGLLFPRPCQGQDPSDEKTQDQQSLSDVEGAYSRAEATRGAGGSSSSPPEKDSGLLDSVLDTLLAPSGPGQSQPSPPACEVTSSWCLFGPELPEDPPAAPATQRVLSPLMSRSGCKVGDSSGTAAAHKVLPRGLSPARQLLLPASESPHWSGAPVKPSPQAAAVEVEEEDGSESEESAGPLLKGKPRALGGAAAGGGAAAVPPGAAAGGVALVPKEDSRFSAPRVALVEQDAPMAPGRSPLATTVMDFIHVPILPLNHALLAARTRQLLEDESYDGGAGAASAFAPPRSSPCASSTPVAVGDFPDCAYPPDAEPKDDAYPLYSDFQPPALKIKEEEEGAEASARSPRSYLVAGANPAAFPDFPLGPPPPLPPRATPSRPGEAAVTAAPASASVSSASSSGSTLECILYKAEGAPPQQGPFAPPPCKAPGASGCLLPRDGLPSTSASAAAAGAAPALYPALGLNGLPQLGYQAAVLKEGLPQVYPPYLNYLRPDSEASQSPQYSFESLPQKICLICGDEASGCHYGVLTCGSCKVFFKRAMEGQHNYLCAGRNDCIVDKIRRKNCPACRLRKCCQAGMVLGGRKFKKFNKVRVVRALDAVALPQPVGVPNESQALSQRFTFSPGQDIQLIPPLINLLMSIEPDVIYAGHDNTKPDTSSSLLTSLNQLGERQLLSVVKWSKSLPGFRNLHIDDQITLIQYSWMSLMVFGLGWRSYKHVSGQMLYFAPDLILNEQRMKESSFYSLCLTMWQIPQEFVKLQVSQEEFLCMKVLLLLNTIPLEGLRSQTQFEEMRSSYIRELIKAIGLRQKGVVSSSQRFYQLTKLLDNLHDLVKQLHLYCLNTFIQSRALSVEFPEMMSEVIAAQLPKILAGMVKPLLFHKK
Briefly: Functional assay of progesterone receptor antagonism (progesterone-induced alkaline phosphatase, T-47D cells). Particulars: antagonism of progesterone (3 nM)-induced PR activity. As for the experimental part:
The PR antagonist activity of the compounds is determined by progesterone-induced alkaline phosphatase activity in the T-47D cell line (ATCC). In the T-47D breast cancer cells, progesterone specifically induces de novo synthesis of a membrane-associated alkaline phosphatase enzyme in a time and dose-dependent manner (Di Lorenzo et al., Cancer Research, 51: 4470-4475 (1991)). The alkaline phosphatase enzymatic activity can be measured with a chemiluminescent substrate, such as CSPD® (Applied Biosystems).
The assay is performed in 384 well plates. Briefly, T-47D cells are plated in 384 well plates at a density of approximately 2.5×10^4 cells/well in 50 μl medium supplemented with 10% fetal bovine serum. Twenty four hours later, the medium is aspirated. New medium that is free of phenol red and serum is added to the cells. Compounds prepared in DMSO are transferred to the cells. The cells are then stimulated with 3 nM final concentration of progesterone (Sigma) and incubated at 37° C. for another 24 hours before the alkaline phosphatase is assayed with 25 μl of CSPD® (Applied Biosystems) using a luminometer (CLIPR). The expression of alkaline phosphatase is used as an indicator of progesterone-induced PR trans-activation. Each compound is tested in duplicate with a 12-concentration titration. […]

SMILES strings stand for the structures.

As for `COc1ccccc1NC(=O)C1=C(C)NC(SC)=C(C#N)C1c1ccccc1Br` (stereo not shown) [Compound 14, 2-methylthio-3-cyano-4-(2-bromophenyl)-5-(2-methoxyphenyl)carbamoyl-6-methyl-1,4-dihydro-pyridine], the IC50 (commonly the concentration that inhibits the measured activity by half) came to 8 nM at MR and 2600 nM against AR.

In the case of `COCC1=C(C(=O)OC(C)C)C(c2ccc(F)cc2Br)C(C#N)=C(C)N1` (stereo not shown) [Compound 96, 5-isopropyl-2-methyl-3-cyano-4-(2-bromo-4-fluorophenyl)-6-(methoxymethyl)-1,4-dihydro-pyridine-5-carboxylate], the IC50 against MR was determined as 9 nM; against GR it was 3100 nM; on AR it was 39800 nM; on PR, 2300 nM.

In the case of `COC(=O)C1=C(C)NC(C)=C(C#N)C1c1ccc(F)cc1Cl` (stereo not shown) [Example 207, 5-methyl-2,6-dimethyl-3-cyano-4-(2-chloro-4-fluorophenyl)-1,4-dihydro-pyridine-5-carboxylate], the IC50 worked out at 41 nM on MR, 6850 nM on GR, 2860 nM against AR and 478 nM against PR.
